In general, IC50 refers to the point on the concentration scale where inhibition reaches its midpoint. The AUC is the area under the concentration-time curve, a measure of exposure. A higher AUC goes with more exposure.

The source of these data is patent US20080194640A1, “Optically Active Tetrahydronaphthalene Derivative” (priority 2005, published 2008).

Data set [1] has as its system C5a stimulated neutrophil. Description: Production of reactive oxygen species in C5a-stimulated neutrophil. The class given is cell-based. The note with it: human neutrophil, C5a 3 nmol/L, luminol luminescence, 37° C.; read-out: IC50 value, inhibition of production of reactive oxygen species in C5a stimulated neutrophil. How it is done: A neutrophil fraction was separately taken from human peripheral venous blood using Lympholyte-poly (Cedarlane), and suspended in Hank's Balanced Salt Solution (HBSS, GIBCO BRL) containing 1% fetal bovine serum (FBS) and 1 mmol/L luminol (Wako Pure Chemical Industries, Ltd.). Reactive oxygen species was measured using a luminometer (MicroLumat, Berthold) for 96-well plate. […] Then, 25 μL of C5a (final concentration 3 nmol/L) was added and luminescence produced by the reaction of the luminol and the reactive oxygen species was measured with the lapse of time for 15 min. The rate of inhibition (% inhibition) of the production of reactive oxygen species in C5a stimulated neutrophil by the test compound was calculated by the following formula, wherein the peak value of the production of reactive oxygen species derived by C5a without addition of the test compound is Max, the peak value of the production of reactive oxygen species without addition of the test compound and without C5a stimulation is Min, and the peak value of the production of reactive oxygen species derived by C5a with the addition of the test compound is Test. […]

Data set [2] concerns the target T1, C5a receptor (Homo sapiens, UniProt P21730).
T1 construct: neutrophil fraction was separated from human peripheral intravenous blood; endogenous in cells; host or cells: human peripheral blood neutrophils (whole cells)
T1 sequence (P21730 1-350): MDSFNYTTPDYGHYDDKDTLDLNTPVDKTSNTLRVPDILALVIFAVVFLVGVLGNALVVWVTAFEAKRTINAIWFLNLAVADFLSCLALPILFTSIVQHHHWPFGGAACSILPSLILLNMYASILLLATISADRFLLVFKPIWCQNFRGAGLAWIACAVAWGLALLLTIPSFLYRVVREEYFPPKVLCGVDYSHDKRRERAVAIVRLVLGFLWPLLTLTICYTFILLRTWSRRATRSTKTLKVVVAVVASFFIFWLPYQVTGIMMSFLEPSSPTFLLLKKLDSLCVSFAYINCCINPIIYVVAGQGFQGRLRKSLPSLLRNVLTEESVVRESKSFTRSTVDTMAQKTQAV
Description: C5a receptor binding assay ([125I]-human C5a, human peripheral blood neutrophil). The following applies: [125I]-C5a 200 pM, 4° C. for 2 hr, read-out: IC50 value, inhibition of [125I]-human C5a binding. The procedure:
The C5a receptor binding inhibitory action of C5a and the test compound was evaluated by a receptor binding assay comprising of human peripheral blood neutrophil, which expresses the C5a receptor, and [^125I]-human C5a (Amersham Pharmacia Biotech) in a MultiScreen (MILLIPORE). First, neutrophil fraction was separated from human peripheral intravenous blood using lympholyte-poly (Cedarlane), and suspended in a Binding buffer [50 mM HEPES, 1 mM CaCl2, 5 mM MgCl2, 0.5% bovine albumin (BSA, SIGMA), 0.02% NaN3 (pH 7.2)]. The binding assay was started by the addition of 1×10^5 cells/50 μL neutrophil suspension, 25 μL of a test compound solution (obtained by dissolving the test compound in N,N-dimethylformamide to a final concentration of 10 mmol/L and diluting with binding buffer), and 25 μL of [^125I]-C5a solution (final concentration 200 pM), to each well of the MultiScreen. […] After drying the MultiScreen, the radioactivity on the filter was measured using a gamma counter.
The rate of inhibition (% inhibition) of C5a binding by the test compound was calculated by the following formula using the count value obtained without addition of the test compound as Total, the count value obtained with addition of non-labeled C5a as Non, and the count value obtained with addition of the test compound as Test. […]

Data set [3] in a line: Evaluation of biological availability (bioavailability) in rat. The class given is in vivo. The following applies: for AUC: rat, fasted female SD rats, plasma. How it is done: Free base•Form-I crystal was administered to female SD rats fasted from the day before the experiment and the plasma concentration was measured under the following conditions. As a result, the areas under blood concentration-time curve (AUC) of the drug after intravenous administration and oral administration are as shown in Table 1.
• Dosing formulation: 0.5 mg/ml in aqueous physiological saline. • Dose: 1 mg/2 ml/kg • Administration method: bolus administration from the tail vein Collection of blood samples: About 0.1-0.2 mL of blood was taken from the cervical vein at 3 min, 10 min, 30 min, 1 hr, 2 hr, 4 hr and 6 hr after administration. The blood was centrifuged, and the plasma was separated.
• Dosing formulation: 2 mg/ml suspension adjusted by gradually adding aqueous hydroxypropylmethylcellulose solution to the compound of the present invention thoroughly triturated in an agate mortar. • Dose: 10 mg/5 ml/kg • Administration method: Forcible administration into the stomach • Collection of blood samples: About 0.1-0.2 mL of blood was taken from the cervical vein at 30 min, 1 hr, 2 hr, 4 hr, 6 hr, 8 hr and 24 hr after administration. The blood was centrifuged, and the plasma was separated.
The plasma concentration of the administered compound was measured by LC-MS/MS.
LC conditions • Column: Capcellpak C18 UG-120 (2.0φ mm×50 mm, S-5 μm, Shiseido Co., Ltd.) • Mobile phase: acetonitrile • Flow rate: 0.25 mL/min • Column temperature: room temperature • Auto sampler temperature set to: 25° C. • Gradient setting: • 0 min→0.6 min:25%→25% • 0.6 min→3.6 min:25%→75% • 3.6 min→6 min:75%→75% • 6 min→6.1 min:75%→25% • 6.1 min→9.5 min:25%→25% • MS/MS conditions • Ionization method: ESI • Capillary temperature: 350° C. • Sheath gas pressure: 80 psi • Spray voltage: 4.5 kV.
The plasma concentration of the racemate was measured by a similar method, and the biological availability was calculated and found to be 20%.

Take `CCn1cc(CN(C(=O)C2CCCc3c(O)cccc32)c2ccc(C(C)C)nc2)cn1` (racemic) [racemate of the compound of Example 3, N-[(1-ethyl-1H-pyrazol-4-yl)methyl]-5-hydroxy-N-(6-isopropylpyridin-3-yl)-1,2,3,4-tetrahydronaphthalene-1-carboxamide, reference compound]: the half-maximal inhibitory concentration (IC50) in data set [1] was 5.9 nM; in data set [2], 23 nM. The molecule further displayed a biological availability in data set [3] (female SD rats, oral 10 mg/kg vs intravenous 1 mg/kg) of 20%. In addition, the AUC was 289 ng·h/mL in data set [3] (intravenous administration 1 mg/kg) and 572 ng·h/mL in data set [3] (oral administration 10 mg/kg).
